Key:
Test in all cases: Reduction of azo substrates over 24 hours at 35° C., microtitration plate (Example 1)
Format in all cases: cell-based
Candida albicans = system: Candida albicans; parameters: key to RED (substrate reduced or not): RED indicates whether the substrate is reduced (Y) or not (N); RED indicates whether the substrate is reduced (Y) or not (N); key to Co (growth, absorbance at 660 nm) / Decol (substrate decolourized, decrease in absorbance) / Fluo (fluorescence multiplied by 2 relative to substrate-free control): The symbol “+” means good growth/decolourization/significant increase in fluorescence; The symbol “+/−” means difficult growth; The symbol “−” means that there is no growth/decolourization/significant increase in fluorescence; settings: substrate 35 mg/l
Method: (§1) Reduction of the “azo” function of the substrates listed in Table I by the species listed in Table II, each species being represented by a strain, is tested in a microtitration plate.
(§2) The reaction medium consists of: • Trypcase soya broth • Substrate 35 mg/l • 0.5 MacFarland inoculum
(§3) The reduction of the substrate and the growth of the microorganisms are monitored using an Infinite® M200 Tecan microplate reader at 35° C. over 24 hours.
(§4) The growth is monitored by the absorbance at 660 nm and the reduction of the substrates by absorbance and fluorescence at the specific wavelengths indicated in Table III.
(§5) The substrate is considered as reduced by the microorganisms when the substrate is decolourized (monitored by the decrease in absorbance) (Decol) and/or when the fluorescence of the substrate is multiplied by 2 relative to the base fluorescence of a substrate-free control (Fluo). The growth is indicated by Co. The symbol “+” means good growth/decolourization/significant increase in fluorescence. The symbol “+/−” means difficult growth. The symbol “−” means that there is no growth/decolourization/significant increase in fluorescence. RED indicates whether the substrate is reduced (Y) or not (N).

Cronobacter muytjensii = system: Cronobacter muytjensii; parameters: key to RED (substrate reduced or not): RED indicates whether the substrate is reduced (Y) or not (N); RED indicates whether the substrate is reduced (Y) or not (N); key to Co (growth, absorbance at 660 nm) / Decol (substrate decolourized, decrease in absorbance) / Fluo (fluorescence multiplied by 2 relative to substrate-free control): The symbol “+” means good growth/decolourization/significant increase in fluorescence; The symbol “+/−” means difficult growth; The symbol “−” means that there is no growth/decolourization/significant increase in fluorescence; settings: E. muytjensii, substrate 35 mg/l
Method: as §1, §2, §3, §4, §5

Escherichia coli = system: Escherichia coli; parameters: key to RED (substrate reduced or not): RED indicates whether the substrate is reduced (Y) or not (N); RED indicates whether the substrate is reduced (Y) or not (N); key to Co (growth, absorbance at 660 nm) / Decol (substrate decolourized, decrease in absorbance) / Fluo (fluorescence multiplied by 2 relative to substrate-free control): The symbol “+” means good growth/decolourization/significant increase in fluorescence; The symbol “+/−” means difficult growth; The symbol “−” means that there is no growth/decolourization/significant increase in fluorescence; settings: E. coli, substrate 35 mg/l
Method: as §1, §2, §3, §4, §5

Geotrichum candidum = system: Geotrichum candidum; parameters: key to RED (substrate reduced or not): RED indicates whether the substrate is reduced (Y) or not (N); RED indicates whether the substrate is reduced (Y) or not (N); key to Co (growth, absorbance at 660 nm) / Decol (substrate decolourized, decrease in absorbance) / Fluo (fluorescence multiplied by 2 relative to substrate-free control): The symbol “+” means good growth/decolourization/significant increase in fluorescence; The symbol “+/−” means difficult growth; The symbol “−” means that there is no growth/decolourization/significant increase in fluorescence; settings: G. candidum, substrate 35 mg/l
Method: as §1, §2, §3, §4, §5

Kocuria rosea = system: Kocuria rosea; parameters: key to RED (substrate reduced or not): RED indicates whether the substrate is reduced (Y) or not (N); RED indicates whether the substrate is reduced (Y) or not (N); key to Co (growth, absorbance at 660 nm) / Decol (substrate decolourized, decrease in absorbance) / Fluo (fluorescence multiplied by 2 relative to substrate-free control): The symbol “+” means good growth/decolourization/significant increase in fluorescence; The symbol “+/−” means difficult growth; The symbol “−” means that there is no growth/decolourization/significant increase in fluorescence; settings: K. rosea, substrate 35 mg/l
Method: as §1, §2, §3, §4, §5

Pseudomonas aeruginosa = system: Pseudomonas aeruginosa; parameters: key to RED (substrate reduced or not): RED indicates whether the substrate is reduced (Y) or not (N); RED indicates whether the substrate is reduced (Y) or not (N); key to Co (growth, absorbance at 660 nm) / Decol (substrate decolourized, decrease in absorbance) / Fluo (fluorescence multiplied by 2 relative to substrate-free control): The symbol “+” means good growth/decolourization/significant increase in fluorescence; The symbol “+/−” means difficult growth; The symbol “−” means that there is no growth/decolourization/significant increase in fluorescence; settings: P. aeruginosa, substrate 35 mg/l
Method: as §1, §2, §3, §4, §5

Staphylococcus aureus = system: Staphylococcus aureus; parameters: key to RED (substrate reduced or not): RED indicates whether the substrate is reduced (Y) or not (N); RED indicates whether the substrate is reduced (Y) or not (N); key to Co (growth, absorbance at 660 nm) / Decol (substrate decolourized, decrease in absorbance) / Fluo (fluorescence multiplied by 2 relative to substrate-free control): The symbol “+” means good growth/decolourization/significant increase in fluorescence; The symbol “+/−” means difficult growth; The symbol “−” means that there is no growth/decolourization/significant increase in fluorescence; settings: S. aureus, substrate 35 mg/l
Method: as §1, §2, §3, §4, §5

[1] = system: Staphylococcus epidermidis; parameters: key to RED (substrate reduced or not): RED indicates whether the substrate is reduced (Y) or not (N); RED indicates whether the substrate is reduced (Y) or not (N); key to Co (growth, absorbance at 660 nm) / Decol (substrate decolourized, decrease in absorbance) / Fluo (fluorescence multiplied by 2 relative to substrate-free control): The symbol “+” means good growth/decolourization/significant increase in fluorescence; The symbol “+/−” means difficult growth; The symbol “−” means that there is no growth/decolourization/significant increase in fluorescence; settings: S. epidermidis, substrate 35 mg/l
Method: as §1, §2, §3, §4, §5

Acinetobacter baumanii = system: Acinetobacter baumanii; parameters: key to RED (substrate reduced or not): RED indicates whether the substrate is reduced (Y) or not (N); RED indicates whether the substrate is reduced (Y) or not (N); key to Decol (substrate decolourized, decrease in absorbance) / Fluo (fluorescence multiplied by 2 relative to substrate-free control) / Co (growth, absorbance at 660 nm): The symbol “+” means good growth/decolourization/significant increase in fluorescence; The symbol “+/−” means difficult growth; The symbol “−” means that there is no growth/decolourization/significant increase in fluorescence; settings: A. baumannii, substrate 35 mg/l
Method: as §1, §2, §3, §4, §5

Enterococcus faecalis = system: Enterococcus faecalis; parameters: key to RED (substrate reduced or not): RED indicates whether the substrate is reduced (Y) or not (N); RED indicates whether the substrate is reduced (Y) or not (N); key to Decol (substrate decolourized, decrease in absorbance) / Fluo (fluorescence multiplied by 2 relative to substrate-free control) / Co (growth, absorbance at 660 nm): The symbol “+” means good growth/decolourization/significant increase in fluorescence; The symbol “+/−” means difficult growth; The symbol “−” means that there is no growth/decolourization/significant increase in fluorescence; settings: E. faecalis, substrate 35 mg/l
Method: as §1, §2, §3, §4, §5

Row | Compound | Co (growth, absorbance at 660 nm) (Candida albicans) | Decol (substrate decolourized, decrease in absorbance) (Candida albicans) | Fluo (fluorescence multiplied by 2 relative to substrate-free control) (Candida albicans) | RED (substrate reduced or not) (Candida albicans) | Co (growth, absorbance at 660 nm) (Cronobacter muytjensii) | Decol (substrate decolourized, decrease in absorbance) (Cronobacter muytjensii) | Fluo (fluorescence multiplied by 2 relative to substrate-free control) (Cronobacter muytjensii) | RED (substrate reduced or not) (Cronobacter muytjensii) | Co (growth, absorbance at 660 nm) (Escherichia coli) | Decol (substrate decolourized, decrease in absorbance) (Escherichia coli) | Fluo (fluorescence multiplied by 2 relative to substrate-free control) (Escherichia coli) | RED (substrate reduced or not) (Escherichia coli) | Co (growth, absorbance at 660 nm) (Geotrichum candidum) | Decol (substrate decolourized, decrease in absorbance) (Geotrichum candidum) | Fluo (fluorescence multiplied by 2 relative to substrate-free control) (Geotrichum candidum) | RED (substrate reduced or not) (Geotrichum candidum) | Co (growth, absorbance at 660 nm) (Kocuria rosea) | Decol (substrate decolourized, decrease in absorbance) (Kocuria rosea) | Fluo (fluorescence multiplied by 2 relative to substrate-free control) (Kocuria rosea) | Co (growth, absorbance at 660 nm) (Pseudomonas aeruginosa) | other results
1 | O=S(=O)([O-])c1ccc(/N=N/c2ccc(O)c3ccccc23)cc1.[Na+] [Orange I] | + | − | − | N | + | + | − | Y | + | + | − | Y | +/− | − | − | N | − | − | − | + | Decol (substrate decolourized, decrease in absorbance) (Pseudomonas aeruginosa): −; Fluo (fluorescence multiplied by 2 relative to substrate-free control) (Pseudomonas aeruginosa): −; RED (substrate reduced or not) (Pseudomonas aeruginosa): N; Co (growth, absorbance at 660 nm) (Staphylococcus aureus): +; Decol (substrate decolourized, decrease in absorbance) (Staphylococcus aureus): +; Fluo (fluorescence multiplied by 2 relative to substrate-free control) (Staphylococcus aureus): −; RED (substrate reduced or not) (Staphylococcus aureus): Y; Co (growth, absorbance at 660 nm) [1]: +; Decol (substrate decolourized, decrease in absorbance) [1]: +; Fluo (fluorescence multiplied by 2 relative to substrate-free control) [1]: −; RED (substrate reduced or not) [1]: Y; Co (growth, absorbance at 660 nm) (Acinetobacter baumanii): +; Decol (substrate decolourized, decrease in absorbance) (Acinetobacter baumanii): +/−; Fluo (fluorescence multiplied by 2 relative to substrate-free control) (Acinetobacter baumanii): −; RED (substrate reduced or not) (Acinetobacter baumanii): Y; Co (growth, absorbance at 660 nm) (Enterococcus faecalis): +; Decol (substrate decolourized, decrease in absorbance) (Enterococcus faecalis): +; Fluo (fluorescence multiplied by 2 relative to substrate-free control) (Enterococcus faecalis): −; RED (substrate reduced or not) (Enterococcus faecalis): Y
2 | O=S(=O)([O-])c1ccc(N=Nc2c(O)ccc3cc(S(=O)(=O)[O-])ccc23)cc1.[Na+].[Na+] [Sunset Yellow] | + | + | + | Y | + | − | − | N | + | − | − | N | + | − | − | N | − | − | − | + | Decol (substrate decolourized, decrease in absorbance) (Pseudomonas aeruginosa): −; Fluo (fluorescence multiplied by 2 relative to substrate-free control) (Pseudomonas aeruginosa): −; RED (substrate reduced or not) (Pseudomonas aeruginosa): N; Co (growth, absorbance at 660 nm) (Staphylococcus aureus): +; Decol (substrate decolourized, decrease in absorbance) (Staphylococcus aureus): −; Fluo (fluorescence multiplied by 2 relative to substrate-free control) (Staphylococcus aureus): −; RED (substrate reduced or not) (Staphylococcus aureus): N; Co (growth, absorbance at 660 nm) [1]: +; Decol (substrate decolourized, decrease in absorbance) [1]: −; Fluo (fluorescence multiplied by 2 relative to substrate-free control) [1]: −; RED (substrate reduced or not) [1]: N; Co (growth, absorbance at 660 nm) (Acinetobacter baumanii): +; Decol (substrate decolourized, decrease in absorbance) (Acinetobacter baumanii): −; Fluo (fluorescence multiplied by 2 relative to substrate-free control) (Acinetobacter baumanii): −; RED (substrate reduced or not) (Acinetobacter baumanii): N; Co (growth, absorbance at 660 nm) (Enterococcus faecalis): +; Decol (substrate decolourized, decrease in absorbance) (Enterococcus faecalis): +; Fluo (fluorescence multiplied by 2 relative to substrate-free control) (Enterococcus faecalis): +; RED (substrate reduced or not) (Enterococcus faecalis): Y

Reference: patent publication US20150125889A1, “IN VITRO DETECTION OF MICROORGANISMS WITH AZOREDUCTASE ACTIVITY” (BIOMÉRIEUX, priority 2012, published 2015)
